For 17 molecules, T/C results are on record in PubChem BioAssay AID330 (DTP/NCI, 2004).

Molecules are shown by their SMILES. Where “and” joins values, the source holds several entries; their conditions need not be identical. Identical values can stand only once. Inconclusive results and toxic doses are left out. Peptide text beside a SMILES is read from it. * marks the point of attachment. Cbz = O=C(OCc1ccccc1)*; Bn = c1ccc(C*)cc1

In this experiment the test system is P388 leukemia ip, CD2F1 mice, survival T/C. Kind of experiment: NCI In Vivo Anticancer Drug Screen. Data for tumor model P388 Leukemia (intraperitoneal) in CD2F1 (CDF1) mice. As to conditions: endpoint: median survival time, higher = longer survival. In short, it runs like this: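 Mice carrying the transplanted tumor received test compound or vehicle. Survival was recorded in each group, and the value is the treated-group measurement divided by that of the vehicle-treated control group.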

The mark [1] stands for this setting: dose: 100.0 mg/kg/injection, schedule: Q04DX003 (ip), vehicle: saline with Tween-80.
The mark [2] stands for this setting: dose: 200.0 mg/kg/injection, schedule: Q04DX003 (ip), vehicle: saline with Tween-80.
[3] abbreviates: dose: 50.0 mg/kg/injection, schedule: Q01DX009 (ip), vehicle: saline.
Setting [4] is: dose: 100.0 mg/kg/injection, schedule: Q01DX009 (ip), vehicle: saline.
Setting [5] is: dose: 200.0 mg/kg/injection, schedule: Q01DX009 (ip), vehicle: saline.
[6] abbreviates: dose: 50.0 mg/kg/injection, schedule: Q01DX005 (ip), vehicle: saline with Tween-80.
Where [7] appears, read: dose: 100.0 mg/kg/injection, schedule: Q01DX005 (ip), vehicle: saline with Tween-80.
Where [8] appears, read: dose: 200.0 mg/kg/injection, schedule: Q01DX005 (ip), vehicle: saline with Tween-80.
Setting [9] is: dose: 50.0 mg/kg/injection, schedule: Q01DX009 (ip), vehicle: saline with Tween-80.
Where [10] appears, read: dose: 100.0 mg/kg/injection, schedule: Q01DX009 (ip), vehicle: saline with Tween-80.
[11] abbreviates: dose: 200.0 mg/kg/injection, schedule: Q01DX009 (ip), vehicle: saline with Tween-80.

With `CCOC(=O)c1c(N)sc2c1CCCC2`, the T/C is, setting by setting: (dose: 50.0 mg/kg/injection, schedule: Q04DX003 (ip), vehicle: saline with Tween-80) 101 % of control; (dose: 100.0 mg/kg/injection, schedule: Q01DX001 (ip), vehicle: saline sonified) 100 % of control; under setting [1], 108 % of control; (dose: 200.0 mg/kg/injection, schedule: Q01DX001 (ip), vehicle: saline sonified) 100 % of control; under setting [2], 105 % of control; (dose: 400.0 mg/kg/injection, schedule: Q01DX001 (ip), vehicle: saline sonified) 100 % of control. Where the note is “dose: 400.0 mg/kg/injection, schedule: Q04DX003 (ip), vehicle: saline with Tween-80”, the T/C was 101 % of control.
Turning to `Cn1c2cc(=O)ccc2c2c3nc4ccccc4[nH]c3cc(O)c21`, the T/C by setting is: under setting [3], 98 % of control and 100 % of control; under setting [4], 95 % of control and 91 % of control; under setting [5], 100 % of control and 104 % of control.
Regarding `OCCN(CCO)C(Cc1ccccc1)c1ccccc1` (stereo not given), the T/C by setting is: under setting [6], 110 % of control; under setting [7], 105 % of control; under setting [8], 110 % of control.
On to `CC(O)CCOC(C[N+](=O)[O-])C(Cl)(Cl)Cl` (stereo not given), for which the T/C was 101 % of control and 104 % of control under setting [9]; 117 % of control under setting [10]; 102 % of control and 120 % of control under setting [11].
Take `O=c1cc[nH]cc1[N+](=O)[O-]`: the T/C was 93 % of control (dose: 12.5 mg/kg/injection, schedule: Q01DX009 (ip), vehicle: distilled water + Tween-80); 98 % of control (dose: 25.0 mg/kg/injection, schedule: Q01DX009 (ip), vehicle: distilled water + Tween-80); 99 % of control (dose: 25.0 mg/kg/injection, schedule: Q01DX009 (ip), vehicle: saline with Tween-80); 108 % of control (dose: 50.0 mg/kg/injection, schedule: Q01DX009 (ip), vehicle: distilled water + Tween-80); 98 % of control under setting [9]; 101 % of control (dose: 100.0 mg/kg/injection, schedule: Q01DX009 (ip), vehicle: distilled water + Tween-80). Moreover, the T/C was 105 % of control under setting [10]; 104 % of control and 108 % of control under setting [4]; 107 % of control (dose: 200.0 mg/kg/injection, schedule: Q01DX009 (ip), vehicle: distilled water + Tween-80); 104 % of control under setting [11]; 100 % of control and 92 % of control under setting [5].
In the case of `CCn1c2ccccc2c2cc(N=Nc3cc(CN(C)C)c(O)c4ncccc34)ccc21`, the T/C is, setting by setting: under setting [6], 100 % of control; under setting [7], 100 % of control; under setting [8], 100 % of control.
For the molecule `O=C(O)C(CSC(c1ccccc1)(c1ccccc1)c1ccccc1)N=Cc1ccccc1O` (stereo not given), the T/C is, setting by setting: under setting [1], 168 % of control; (dose: 150.0 mg/kg/injection, schedule: Q04DX003 (ip), vehicle: saline with Tween-80) 190 % of control; under setting [2], 122 % of control.
As for `CCCC(=O)Nc1ccccc1`, the T/C is 100 % of control under setting [9], 100 % of control under setting [10] and 93 % of control under setting [11].
As for `O=C1c2cc([N+](=O)[O-])ccc2-c2c(N=Cc3ccc4c(c3)OCO4)cccc21`, the T/C by setting is: (dose: 60.0 mg/kg/injection, schedule: Q01DX005 (ip), vehicle: saline with Tween-80) 90 % of control; (dose: 120.0 mg/kg/injection, schedule: Q01DX005 (ip), vehicle: saline with Tween-80) 91 % of control; (dose: 240.0 mg/kg/injection, schedule: Q01DX005 (ip), vehicle: saline with Tween-80) 99 % of control.
`O=C1SC(=NC2CCCCC2)N(C2CCCCC2)/C1=C1\C(=O)SC(=NC2CCCCC2)N1C1CCCCC1`: the T/C is, setting by setting: (dose: 15.0 mg/kg/injection, schedule: Q01DX005 (ip), vehicle: saline with Tween-80) 92 % of control; (dose: 30.0 mg/kg/injection, schedule: Q01DX005 (ip), vehicle: saline with Tween-80) 90 % of control.
`N#[N+]c1c(C(=O)O)[nH]c(=O)[nH]c1=O`: the T/C (dose: 16.0 mg/kg/injection, schedule: Q01DX009 (ip), vehicle: saline sonified) was 109 % of control; the T/C (dose: 32.0 mg/kg/injection, schedule: Q01DX009 (ip), vehicle: saline sonified) is 104 % of control; the T/C (dose: 64.0 mg/kg/injection, schedule: Q01DX009 (ip), vehicle: saline sonified) was 100 % of control; the T/C (dose: 125.0 mg/kg/injection, schedule: Q01DX009 (ip), vehicle: saline sonified) was 104 % of control; the T/C (dose: 250.0 mg/kg/injection, schedule: Q01DX009 (ip), vehicle: saline sonified) was 109 % of control; the T/C (dose: 500.0 mg/kg/injection, schedule: Q01DX009 (ip), vehicle: saline sonified) is 104 % of control.
Turning to `CC(C)CC(NC(=O)C(CSCc1ccccc1)NC(=O)OCc1ccccc1)C(N)=O` (stereo not given) (Cbz-Cys(Bn)-Leu-NH2; configuration not given here), the T/C runs as follows: (dose: 6.25 mg/kg/injection, schedule: Q01DX005 (ip), vehicle: Klucel (hydroxypropylcellulose) (HPC)) 102 % of control; (dose: 12.5 mg/kg/injection, schedule: Q01DX005 (ip), vehicle: Klucel (hydroxypropylcellulose) (HPC)) 86 % of control; (dose: 25.0 mg/kg/injection, schedule: Q01DX005 (ip), vehicle: Klucel (hydroxypropylcellulose) (HPC)) 86 % of control.
With `CCN=c1cc2sc3cc(NCC)c(C)cc3nc-2cc1C`, the T/C by setting is: (dose: 12.5 mg/kg/injection, schedule: Q01DX009 (ip), vehicle: saline) 97 % of control; (dose: 25.0 mg/kg/injection, schedule: Q01DX009 (ip), vehicle: saline) 99 % of control; under setting [3], 101 % of control; under setting [4], 90 % of control.
`CC(=O)c1c(C)[nH]c2c1[nH]c1ccccc12`: the T/C (dose: 60.0 mg/kg/injection, schedule: Q01DX005 (ip), vehicle: Klucel (hydroxypropylcellulose) (HPC)) was 93 % of control and the T/C (dose: 120.0 mg/kg/injection, schedule: Q01DX005 (ip), vehicle: Klucel (hydroxypropylcellulose) (HPC)) is 101 % of control.
As for `O=C1c2cc(Cl)ccc2NC(O)c2cccn21` (stereo not given), the T/C runs as follows: (dose: 0.1 mg/kg/injection, schedule: Q01DX005 (ip), vehicle: water) 93 % of control; (dose: 0.2 mg/kg/injection, schedule: Q01DX005 (ip), vehicle: water) 89 % of control; (dose: 0.4 mg/kg/injection, schedule: Q01DX005 (ip), vehicle: water) 90 % of control; (dose: 0.8 mg/kg/injection, schedule: Q01DX005 (ip), vehicle: water) 98 % of control; (dose: 1.6 mg/kg/injection, schedule: Q01DX005 (ip), vehicle: water) 98 % of control; (dose: 5.0 mg/kg/injection, schedule: Q01DX005 (ip), vehicle: distilled water + Tween-80) 95 % of control. The T/C runs as follows: (dose: 10.0 mg/kg/injection, schedule: Q01DX005 (ip), vehicle: distilled water + Tween-80) 101 % of control; (dose: 20.0 mg/kg/injection, schedule: Q01DX005 (ip), vehicle: distilled water + Tween-80) 95 % of control; (dose: 40.0 mg/kg/injection, schedule: Q01DX005 (ip), vehicle: distilled water + Tween-80) 92 % of control; (dose: 80.0 mg/kg/injection, schedule: Q01DX005 (ip), vehicle: distilled water + Tween-80) 93 % of control.
Take `CCOP(=O)(Nc1cc(C)ccc1C)OCC`: the T/C is 100 % of control under setting [3]; 105 % of control (dose: 100.0 mg/kg/injection, schedule: Q01DX001 (ip), vehicle: saline with Tween-80); 104 % of control under setting [4]; 112 % of control (dose: 200.0 mg/kg/injection, schedule: Q01DX001 (ip), vehicle: saline with Tween-80); 106 % of control under setting [5]; 109 % of control (dose: 400.0 mg/kg/injection, schedule: Q01DX001 (ip), vehicle: saline with Tween-80).
For the molecule `CCNC(=O)OCc1cnc(C)c(O)c1COC(=O)NCC`, the T/C (dose: 25.0 mg/kg/injection, schedule: Q01DX005 (ip), vehicle: saline with Tween-80) is 102 % of control; the T/C under setting [6] is 100 % of control; the T/C under setting [7] was 99 % of control.
